{"source": "patent US20080070917A1", "about": "“METHODS FOR ADMINISTERING LEVOSIMENDAN” (priority 2005, published 2008)", "key": {"[1]": {"system": "subjects hospitalized with acute decompensation of heart failure", "test": "Phase 3, double-blind, placebo-controlled study in acute decompensation of heart failure (Example 5)", "format": "in vivo, human", "protocol": "This was a Phase 3, double-blind, placebo-controlled, parallel-group study in subjects hospitalized with a primary or secondary admitting diagnosis of acute decompensation of heart failure. The treatment period was up to 24 hours for each subject with at least 90 days follow-up after the start of the study drug infusion. All baseline medications (including use of beta-blockers and other medications) were recorded for each patient. The study evaluated hospitalized subjects (n=600) with a primary or secondary admitting diagnosis of worsening heart failure, with symptoms at rest despite treatment with IV diuretic therapy. […] Infusion rates for background therapy of continuous IV diuretics, inotropes and vasodilators had to have been unchanged for at least two hours prior to the baseline evaluation. Left ventricular ejection fraction (EF) was required to be less than or equal to 35% as assessed within the previous 12 months. Subjects were randomized to either levosimendan (n=299) or placebo (n=301) in addition to standard-of-care. Levosimendan treatment was initiated with a total loading dose of […] administered over 10 minutes (6 mg/kg for subjects on concomitant IV vasodilators or inotropes at the start of the study drug infusion) followed by a continuous infusion of […] for the following 50 minutes. If the dose was well tolerated, the infusion rate was increased to 0.2 mg/kg/min for a further 23 hours. If the higher dose was not well tolerated it was reduced to […] and then further to 0.05 mg/kg/min if required. On completion of 24 hours the infusion is turned off abruptly.\nThe primary objective of this study was to compare the efficacy between levosimendan and placebo treatments using the clinical composite endpoint (CCE) incorporating a subject reported PGA at 6 hours, 24 hours and Day 5, combined with clinical criteria for worsening heart failure through 5 days after the start of study drug infusion. In contrast to REVIVE I, the was CCE included a PGA at 6 hours as part of the primary endpoint and diuretics at any time during the 5 day assessment period were included as rescue therapy.\nEpisodes of worsening heart failure treated with a rescue therapy were collected during the initial hospitalization until Day 5 or discharge whichever was later. Safety parameters such as adverse events (AEs), HR, […] (BP), routine laboratory tests, and ECG were monitored frequently up to 31 days, with hospitalization and mortality extended to 90 days after start of study drug infusion. Survival was monitored for all randomized subjects from Day 90 until the last subject underwent the final scheduled visit."}, "Unbound plasma fraction": {"test": "Unbound plasma fraction", "format": "in vitro ADME"}, "CHF patients": {"system": "CHF patients", "test": "PK-PD meta-analysis (NONMEM, Emax model) of eight studies in CHF patients", "format": "in vivo, human", "settings": "for EC50: Homo sapiens, effective concentration (composite of levosimendan, OR-1855, OR-1896)", "protocol": "Data from eight studies (Studies 300102, 300103, 300105, 3001022, 3001024, 3001040, 3001058 (Group 1 and 2) and 3001058 (Group 4)) (335 CHF patients) were combined to generate the PK-PD dataset. Dose regimens included infusions of various doses (0.25-70.6 mg) and infusion durations (5 min-7 days), with or without an initial loading dose. In addition to plasma concentration-time data the PD variables utilized in the PK-PD evaluation were PCWP, CI, HR, SBP, and DBP.\nPopulation PK models were built using a non-linear mixed-effect population modelling approach with the NONMEM software. The sequence of modelling was such that levosimendan PK was modelled first. Then the levosimendan portion of the full PK model was fixed, and individual PK parameters were carried forward in order to simultaneously model the metabolites PK. In the PK model it was assumed that levosimendan is fully metabolized to OR-1855, which is further metabolized to OR-1896. A gut compartment with first-order input from the levosimendan compartment and first-order output to the OR 1855 compartment was incorporated to account for the considerable delay between levosimendan elimination and metabolite appearance. This delay represents transport of levosimendan from plasma to gut and further transit to colon, metabolism of levosimendan to OR-1855 in the colon, and the subsequent absorption of OR-1855 from the colon. Elimination of the metabolites and inter-conversion between the two metabolites were modelled as first-order processes (See, FIG. 1). A mixture model allowing different inter-conversion rates for slow and rapid acetylators was beneficial in describing the data.\nCovariates (fixed effects) such as demographic characteristics and patient attributes, for e.g. ejection fraction (EF), New York Heart Association classification (NYHA), serum bilirubin, and creatinine clearance etc. were tested individually in a stepwise method. The intra-subject effects or residual error was modelled as additive, proportional (constant coefficient of variation) or combination of the two for the PK model. The inter-subject effects were modelled as exponential error model.\nThe full PK models for levosimendan and its metabolites were fixed for the PD modelling. For each individual, plasma concentrations were calculated using the post-hoc PK parameter estimates for that individual. A maximal drug effect (Emax) model described by the following general equation was used to describe the relation between the estimated concentrations of drug and metabolites, and effect. E=Emax*Ceff/(EC50+Ceff) • Where: Ceff is the apparent effective concentration in the hypothetical effect compartment that may be a composite of drug and metabolite concentrations; EC50 is the effective concentration required to achieve 50% of Emax.\nThe equilibration rate constant (ke0) controls the time delay between the time courses of levosimendan concentration in the central compartment (Cp) and levosimendan concentration in the effect compartment (Clevo), and is expressed as dClevo/dT=ke0·(Cp−Clevo).\nThe contributions of the drug and the metabolites to the PD effects were modeled using a competitive agonist model that assumed same efficacy (Emax), but different potencies (EC50) for different compounds. A potency factor (RP) accounted for differences in potency and protein binding relative to levosimendan. […] Ceff=Clevo+RP1·COR-1855+RP2·COR-1896\nWhere RP1 and RP2 are the potencies of OR-1855 and OR-1896 relative to levosimendan, respectively.\nThe drug response was modelled as the absolute change from baseline and as the fractional change from baseline. The non-drug response was modelled either as a time dependent function or as an instantaneous response based on the following equations.\nWhere SSS is the maximum non-drug-related response. The exponent “a” represents the rate of onset of the non-drug response over time. […]"}, "[2]": {"system": "patients with New York Heart Association functional class II to III heart failure", "test": "Double-blind, placebo-controlled study of a 24-hour levosimendan infusion in heart failure patients", "format": "in vivo, human", "protocol": "A double-blind, placebo-controlled, parallel group, single center study in patients with New York Heart Association functional class II to III heart failure was conducted. Patients were randomised in 1:1 ratio to receive either levosimendan or placebo. Study drug administration was initiated with a loading dose of 12 μg/kg of levosimendan or placebo delivered over 10 minutes. This was followed by a continuous infusion of 0.1 μg/kg/min for 50 minutes. If the dose was well tolerated the infusion rate was increased to 0.2 μg/kg/min for a further 23 hours. After the study drug was started, the hemodynamic assessments were repeated at 30 minutes, at two and six hours. The non-invasive hemodynamic assessments were repeated at 24-hours. Follow-up visits took place at 2, 3, 5, 7, 9 and 14 days from the beginning of the study. On these visits echocardiographic measurements were performed and blood pressure and heart rate were measured.\nAn Acuson Sequoia ultrasound system with 2.5-3.75 MHz probes was used for the Doppler echocardiographic measurements. Blood flow velocity curves were recorded at a sweep speed of 100 mm/s. Left ventricular ejection fraction was assessed by two-dimensional apical two- and four-chamber views with use of modified Simpson rule. Mitral flow velocity was assessed by pulsed wave Doppler from the apical four-chamber view by placing a 3-mm sample volume between the tip of the mitral leaflets in diastole. The following measurements were made over five consecutive cycles: maximal early and maximal late diastolic velocity and their ratio, duration of the late diastolic velocity wave, deceleration time and deceleration rate of early diastolic velocity. Peak velocities were defined as the highest point of the spectrum.\nBlood samples (4 ml) for natriuretic peptide (NT-proANP, NT-proBNP) measurements were taken into pre-cooled EDTA tubes. Samples were taken at baseline (0-sample) and on the first study day 30 min, 2 h, 6h and 24 h after the start of the infusion and in the mornings of days 2, 3, 5, 7, 9 and 14 after the start of the study drug infusion."}}, "note": "Where two headings read alike, the source gives them in different places."}
{"smiles": "C[C@@H]1CC(=O)NN=C1c1ccc(NN=C(C#N)C#N)cc1", "note": "[levosimendan, (−)-enantiomer of [[4-(1,4,5,6-tetrahydro-4-methyl-6-oxo-3-pyridazinyl)phenyl]hydrazono]propanedinitrile]", "values": [{"measurement": "Proportion of patients reporting moderate to marked improvement in dyspnea", "setting": "[1]; at 6 hours (91/299), placebo/SOC 25.2%", "value": 30.4, "unit": "%"}, {"measurement": "Improvement in self assessment (PGA) compared to placebo/SOC", "setting": "[1]; beta-blocked patients, over the first 5 days, p=0.001", "value": "significantly greater improvement"}, {"measurement": "Improvement in self assessment (dyspnea) compared to placebo/SOC", "setting": "[1]; over the first 5 days, p=0.018", "value": "significantly greater improvement"}, {"measurement": "Proportion of patients reporting moderate to marked improvement in PGA", "setting": "[1]; overall population, at 6 hours (85/299), placebo/SOC 23.9%", "value": 28.4, "unit": "%"}, {"measurement": "Improvement in PGA compared to placebo/SOC", "setting": "[1]; overall population, over 5 days, p=0.002", "value": "significantly greater improvement"}, {"measurement": "Difference in PGA improvement compared to placebo/SOC", "setting": "[1]; patients not receiving beta-blocker therapy (n=96)", "value": "not statistically significant"}, {"measurement": "Difference in dyspnea improvement between treatment groups", "setting": "[1]; patients not receiving beta-blocker therapy, first 5 days", "value": "not statistically significant"}, {"measurement": "Proportion reporting moderate to marked improvements in dyspnea compared to placebo/SOC", "setting": "[1]; patients receiving a beta-blocker at baseline, at 6 hours", "value": "greater proportion"}, {"measurement": "Proportion of patients reporting moderate to marked improvements in PGA", "setting": "[1]; patients receiving a beta-blocker at baseline, at 6 hours, placebo/SOC 34%", "value": 44, "unit": "%"}, {"measurement": "Improvement in dyspnea compared to placebo/SOC", "setting": "[1]; patients receiving beta-blockers, over the first 5 days, p=0.0016", "value": "significantly greater improvement"}, {"measurement": "Other secondary endpoints, except 90-day mortality", "setting": "[1]; versus placebo", "value": "trended in favor of levosimendan but did not reach statistical significance"}, {"measurement": "Unbound plasma fraction", "setting": "Unbound plasma fraction", "value": 0.025}, {"measurement": "EC50", "setting": "CHF patients; read-out: Post-hoc Mean EC50, CI", "value": 0.09, "unit": "µg/mL"}, {"measurement": "EC50", "setting": "CHF patients; read-out: Post-hoc Mean EC50, DBP", "value": 0.154, "unit": "µg/mL"}, {"measurement": "EC50", "setting": "CHF patients; read-out: Post-hoc Mean EC50, HR", "value": 0.198, "unit": "µg/mL"}, {"measurement": "EC50", "setting": "CHF patients; read-out: Post-hoc Mean EC50, PCWP", "value": 0.0511, "unit": "µg/mL"}, {"measurement": "EC50", "setting": "CHF patients; read-out: Post-hoc Mean EC50, SBP", "value": 0.047, "unit": "µg/mL"}, {"measurement": "Post-hoc Mean Emax, CI", "setting": "CHF patients; baseline mean 2.21", "value": 1.15, "unit": "L/m^2/min"}, {"measurement": "Post-hoc Mean Emax, PCWP", "setting": "CHF patients; baseline mean 20.8", "value": "−7.8", "unit": "mmHg"}, {"measurement": "Post-hoc Mean Emax, DBP", "setting": "CHF patients; baseline mean 71", "value": "−13.3", "unit": "mmHg"}, {"measurement": "Post-hoc Mean Emax, HR", "setting": "CHF patients; baseline mean 76", "value": 18, "unit": "Bpm"}, {"measurement": "Post-hoc Mean Emax, SBP", "setting": "CHF patients; baseline mean 118", "value": "−7.1", "unit": "mmHg"}, {"measurement": "Maintenance of beneficial hemodynamic and neurohormonal effects", "setting": "[2]; after levosimendan administration", "value": "up to two weeks"}, {"measurement": "Time of lowest echocardiographically estimated PCWP", "setting": "[2]; after starting the infusion", "value": 2, "unit": "days"}, {"measurement": "Day of lowest plasma NT-proANP level", "setting": "[2]; human, in vivo", "value": 3, "unit": "days"}, {"measurement": "Day of lowest plasma NT-proBNP level", "setting": "[2]; human, in vivo", "value": 2, "unit": "days"}, {"measurement": "Duration of treatment effect on NT-proANP, linear model", "setting": "[2]; human, in vivo", "value": 16, "unit": "days"}, {"measurement": "Duration of treatment effect on NT-proBNP, linear model", "setting": "[2]; human, in vivo", "value": 12, "unit": "days"}, {"measurement": "Time of highest CO value estimated by echocardiography", "setting": "[2]; human, in vivo", "value": "at the end of the 24-hour infusion"}]}
